We go through 8 compounds from patent US11884707B2, “Compositions for detection, inhibition and imaging of indoleamine 2, 3-dioxygenase 1 (IDO1) and methods of making and using same” (Regeneron Pharmaceuticals, Inc., priority 2016, dated 2024).

The assay has as its target T1, His-tagged IDO1 human recombinant protein (Homo sapiens, UniProt P14902).
T1 construct: purchased BPS Biosciences 71182
Nature of the assay: IDO1 ELISA (affinity assay), sandwich ELISA with immobilized biotinylated macrocycle. The conditions noted are these: for EC50: biotin-PEG3-modified macrocycle immobilized on NeutrAvidin plate (2 μM coating), His-tagged human IDO1 200 to 0 nM. The assay is classed as binding. The method, then: A black 96-well NeutrAvidin Coated High Binding Capacity plate (15510, Pierce) was coated with 2 μM biotinylated macrocyclic peptide ligand in TBS (25 mM Tris-HCl, 150 mM NaCl, pH 7.6) for 2 h at room temperature. The plate was aspirated and then washed with Wash Buffer (0.05% (v/v) Tween-20 in PBS, 6×). His-tagged IDO1 human recombinant protein (71182, BPS Biosciences) was serially diluted in Wash Buffer (from 200 to 0 nM) and incubated in the designated microwells for 1 h at room temperature. Microwells were aspirated and subsequently washed with Wash Buffer (11×). To detect the bound IDO1 protein, Alkaline Phosphatase (AP)-conjugated Anti-6×His Tag® antibody [HIS-1] (ab49746, Abcam) was prepared at 1:10,000 dilution and added to the microwells for 1 h at room temperature. The plate was aspirated and washed with Wash Buffer (5×). AttoPhos® AP Fluorescent Substrate System (S1000, Promega) was employed to develop the microwells. Using an excitation wavelength of 430 nm, fluorescent emission at 535 nm was recorded by Beckman Coulter DTX880 photometer. Titration curves were fit using a four-parameter regression curve fitting program to determine EC50 values.
The binding affinities of biotin-PEG3-modified macrocyclic peptide ligands were tested in an ELISA format. For these assays, a dilution series of His-tagged IDO1 human recombinant protein was captured using the macrocyclic peptide ligands immobilized on a NeutrAvidin-coated plate. […] The sequences of the peptide ligands are listed in Table 1, where D-amino acids are denoted in lowercase, Me-Trp=1-methyl-L-tryptophan, and F-Phe=4-fluoro-L-phenylalanine.
The D-alanine substituted, biotin-PEG3-modified macrocycles were tested in the IDO1 ELISA (Affinity assay). For these assays, a dilution series of His-tagged IDO1 human recombinant protein was captured using macrocycles immobilized on a NeutrAvidin-coated plate.

[1] abbreviates: alanine scan and 3-mer/4-mer variants, biotin-PEG3-modified, FIGS. 15-18.

Where a SMILES comes first, the peptide text is derived from it. Bridges are numbered along the chain shown (N, C = ends). Triazole bridges read from a SMILES are 1,4-linked. [ ]: non-standard residue; d: D form. The star is where a group is joined. Biotinyl(3aR,4R,6aS) = O=C1N[C@@H]2[C@@H](CS[C@@H]2CCCCC(=O)*)N1; Biotin = O=C1N[C@H]2[C@H](CS[C@H]2CCCCC(=O)*)N1; Trp(1-Me) = Cn1cc(C[C@H](N)C(=O)O)c2ccccc21; Lys(N3) = [N-]=[N+]=NCCCC[C@H](N)C(=O)O; Phe(4-F) = N[C@@H](Cc1ccc(F)cc1)C(=O)O; AEEEA = NCCOCCOCCOCC(=O)O; Pra = C#CC[C@H](N)C(=O)O

T1 sequence (P14902 whole entry): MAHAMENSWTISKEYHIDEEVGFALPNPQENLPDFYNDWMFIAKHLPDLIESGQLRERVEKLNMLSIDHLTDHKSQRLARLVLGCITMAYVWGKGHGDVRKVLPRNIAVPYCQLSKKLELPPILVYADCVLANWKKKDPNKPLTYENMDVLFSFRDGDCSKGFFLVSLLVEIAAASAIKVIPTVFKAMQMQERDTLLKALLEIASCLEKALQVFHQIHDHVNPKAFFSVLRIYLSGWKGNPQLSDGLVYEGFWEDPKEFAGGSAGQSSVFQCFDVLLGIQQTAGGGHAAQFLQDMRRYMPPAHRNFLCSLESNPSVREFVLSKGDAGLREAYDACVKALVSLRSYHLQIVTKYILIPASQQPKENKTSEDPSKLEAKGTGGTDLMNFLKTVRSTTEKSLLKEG

As for `NC(=O)[C@@H]1CCCCn2cc(nn2)C[C@H](NC(=O)COCCOCCOCCNC(=O)CCCC[C@@H]2SC[C@@H]3NC(=O)N[C@@H]32)C(=O)N[C@H](CO)C(=O)N[C@H](Cc2c[nH]c3ccccc23)C(=O)N[C@H](Cc2c[nH]c3ccccc23)C(=O)N[C@@H](Cc2ccc(F)cc2)C(=O)N1` [sww(F-Phe), Biotin-PEG3-Cy(sww(F-Phe))] ({Biotin-AEEEA}-[Pra][dS][dW][dW][Phe(4-F)][Lys(N3)]-NH2; triazole 1-6), the “Maximum ELISA signal for human IDO1 binding (in words)” value under setting [1] is on record as “superior to the other 4-mers generated”.
In the case of `C[C@H]1NC(=O)[C@@H](Cc2ccccc2)NC(=O)[C@@H](CCCNC(=N)N)NC(=O)[C@@H](Cc2ccccc2)NC(=O)[C@@H](NC(=O)COCCOCCOCCNC(=O)CCCC[C@@H]2SC[C@@H]3NC(=O)N[C@@H]32)Cc2cn(nn2)CCCC[C@@H](C(N)=O)NC(=O)[C@@H](CO)NC1=O` [frfas, Biotin-PEG3-Cy(frfas)] ({Biotin-AEEEA}-[Pra][dF][dR][dF][dA][dS][Lys(N3)]-NH2; triazole 1-7), the “Binding affinity to human IDO1 relative to parent macrocycle or sibling variants (in words)” value under setting [1] is listed as “weakest binding to IDO1”.
On to `C[C@H]1NC(=O)[C@@H](CCCNC(=N)N)NC(=O)[C@@H](Cc2ccc(O)cc2)NC(=O)[C@@H](Cc2c[nH]c3ccccc23)NC(=O)[C@@H](NC(=O)COCCOCCOCCNC(=O)CCCC[C@@H]2SC[C@@H]3NC(=O)N[C@@H]32)Cc2cn(nn2)CCCC[C@@H](C(N)=O)NC(=O)[C@@H](Cc2ccc(O)cc2)NC1=O` [biotin-PEG3-Cy(wyray)] ({Biotin-AEEEA}-[Pra][dW][dY][dR][dA][dY][Lys(N3)]-NH2; triazole 1-7), for which the EC50 is 0.025 µM.
On the same count and under the same terms, the value for `Cn1cc(C[C@@H]2NC(=O)[C@@H](CCCNC(=N)N)NC(=O)[C@@H](Cc3ccccc3)NC(=O)[C@@H](CO)NC(=O)[C@@H](CC(N)=O)NC(=O)[C@@H](NC(=O)COCCOCCOCCNC(=O)CCCC[C@@H]3SC[C@@H]4NC(=O)N[C@@H]43)Cc3cn(nn3)CCCC[C@@H](C(N)=O)NC2=O)c2ccccc21` [biotin-PEG3-Cy(nsfr(Me-Trp))] ({Biotin-AEEEA}-[Pra][dN][dS][dF][dR][Trp(1-Me)][Lys(N3)]-NH2; triazole 1-7) was 0.124 µM; that for `Cn1cc(C[C@@H]2NC(=O)[C@@H](Cc3ccccc3)NC(=O)[C@@H](CCCNC(=N)N)NC(=O)[C@@H](Cc3ccccc3)NC(=O)[C@@H](NC(=O)COCCOCCOCCNC(=O)CCCC[C@@H]3SC[C@@H]4NC(=O)N[C@@H]43)Cc3cn(nn3)CCCC[C@@H](C(N)=O)NC(=O)[C@@H](CO)NC2=O)c2ccccc21` [biotin-PEG3-Cy(frf(Me-Trp)s)] ({Biotin-AEEEA}-[Pra][dF][dR][dF][Trp(1-Me)][dS][Lys(N3)]-NH2; triazole 1-7) was 0.02 µM.
Consider `N=C(N)NCCC[C@H]1NC(=O)[C@@H](Cc2ccc(O)cc2)NC(=O)[C@@H](Cc2c[nH]c3ccccc23)NC(=O)[C@@H](NC(=O)COCCOCCOCCNC(=O)CCCC[C@H]2SC[C@H]3NC(=O)N[C@H]32)Cc2cn(nn2)CCCC[C@@H](C(N)=O)NC(=O)[C@@H](Cc2ccc(O)cc2)NC1=O` [wyry, Biotin-PEG3-Cy(wyry)] ({Biotinyl(3aR,4R,6aS)-AEEEA}-[Pra][dW][dY][dR][dY][Lys(N3)]-NH2; triazole 1-6), for which the “Binding affinity to human IDO1 relative to parent macrocycle or sibling variants (in words)” value under setting [1] was “best affinity among the 4-mer macrocycles”.
`CC(C)C[C@H]1NC(=O)[C@@H](NC(=O)COCCOCCOCCNC(=O)CCCC[C@H]2SC[C@H]3NC(=O)N[C@H]32)Cc2cn(nn2)CCCC[C@@H](C(N)=O)NC(=O)[C@H](Cc2ccc(F)cc2)NC(=O)[C@H](Cc2cn(C)c3ccccc23)NC(=O)[C@@H](Cc2ccccc2)NC1=O` [lf(Me-Trp)(F-Phe), Biotin-PEG3-Cy(lf(Me-Trp)(F-Phe))] ({Biotinyl(3aR,4R,6aS)-AEEEA}-[Pra][dL][dF][Trp(1-Me)][Phe(4-F)][Lys(N3)]-NH2; triazole 1-6): the “Binding affinity to human IDO1 relative to parent macrocycle or sibling variants (in words)” value under setting [1] was “slight decrease in binding affinity”.
`CC(C)C[C@H]1NC(=O)[C@@H](Cc2ccc(O)cc2)NC(=O)[C@@H](Cc2ccccc2)NC(=O)[C@@H](Cc2ccccc2)NC(=O)[C@@H](CCCNC(=N)N)NC(=O)[C@@H](NC(=O)COCCOCCOCCNC(=O)CCCC[C@@H]2SC[C@@H]3NC(=O)N[C@@H]32)Cc2cn(nn2)CCCC[C@@H](C(N)=O)NC1=O` [biotin-PEG3-Cy(rffyl)] ({Biotin-AEEEA}-[Pra][dR][dF][dF][dY][dL][Lys(N3)]-NH2; triazole 1-7): the EC50 is 0.125 µM.

Broadly, the EC50 is the concentration needed to bring the measured effect to its halfway point.
